Experimental data published in ChEMBL document CHEMBL5727040, “Factor XIa inhibitors” (2018).

Experiments:
Coagulation factor XI = Coagulation factor XI (Homo sapiens, UniProt P03951); experiment: Inhibition Assay: Factor XIa determinations were made in 50 mM HEPES buffer at pH 7.4 containing 150 mM NaCl, 5 mM CaCl2, and 0.1% PEG 8000 (polyethylene glycol; JT Baker or Fisher Scientific). Determinations were made using purified human Factor XIa at a final concentration of 40 pM (Sekisui Diagnostics) and the synthetic substrate, Z-Gly-Pro-Arg-AFC, TFA salt (Sigma #C0980) at a concentration of 100 μM.
Plasma kallikrein = Plasma kallikrein (Homo sapiens, UniProt P03952); experiment: Kallikrein Assay: The effectiveness of a compound of the present invention as an inhibitor of Kallikrein can be determined using a relevant purified serine protease, and an appropriate synthetic substrate. The rate of hydrolysis of the chromogenic or fluorogenic substrate by the relevant serine protease was measured both in the absence and presence of compounds of the present invention. Assays were conducted at room temperature or at 37° C. […] A decrease in the rate of fluorescence change in the presence of inhibitor is indicative of enzyme inhibition. Such methods are known to one skilled in the art. […] Times required to achieve equilibration between enzyme and inhibitor were determined in control experiments. The reactions were performed under linear progress curve conditions and fluorescence increase measured at 405 Ex/510 Em nm. […] IC50 was determined by inflection point from a four parameter logistic curve fit. Ki was calculated using the Cheng Prusoff equation, Ki=IC50/(1+([S]/Km)).
Plasma kallikrein, sequence (P03952 20-390 limits assumed): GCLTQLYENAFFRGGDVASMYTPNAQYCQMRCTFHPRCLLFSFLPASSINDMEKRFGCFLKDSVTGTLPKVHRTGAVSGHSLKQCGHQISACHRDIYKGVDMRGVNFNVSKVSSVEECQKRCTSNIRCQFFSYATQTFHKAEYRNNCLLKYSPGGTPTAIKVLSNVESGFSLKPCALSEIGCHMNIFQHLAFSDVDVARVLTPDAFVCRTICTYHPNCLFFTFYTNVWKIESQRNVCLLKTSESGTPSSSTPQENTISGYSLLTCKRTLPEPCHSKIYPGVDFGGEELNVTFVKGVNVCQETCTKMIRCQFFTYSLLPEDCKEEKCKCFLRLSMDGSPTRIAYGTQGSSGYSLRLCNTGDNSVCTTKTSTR
Plasma kallikrein, sequence (P03952 391-638 limits assumed): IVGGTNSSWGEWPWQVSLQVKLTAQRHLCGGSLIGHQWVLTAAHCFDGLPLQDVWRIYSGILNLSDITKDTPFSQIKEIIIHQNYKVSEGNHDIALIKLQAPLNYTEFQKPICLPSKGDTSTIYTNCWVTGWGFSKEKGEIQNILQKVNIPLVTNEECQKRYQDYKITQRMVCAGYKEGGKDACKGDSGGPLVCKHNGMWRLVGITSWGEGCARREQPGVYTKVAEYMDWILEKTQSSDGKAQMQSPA

Coagulation factor XI, sequence (P03951 19-387 limits assumed): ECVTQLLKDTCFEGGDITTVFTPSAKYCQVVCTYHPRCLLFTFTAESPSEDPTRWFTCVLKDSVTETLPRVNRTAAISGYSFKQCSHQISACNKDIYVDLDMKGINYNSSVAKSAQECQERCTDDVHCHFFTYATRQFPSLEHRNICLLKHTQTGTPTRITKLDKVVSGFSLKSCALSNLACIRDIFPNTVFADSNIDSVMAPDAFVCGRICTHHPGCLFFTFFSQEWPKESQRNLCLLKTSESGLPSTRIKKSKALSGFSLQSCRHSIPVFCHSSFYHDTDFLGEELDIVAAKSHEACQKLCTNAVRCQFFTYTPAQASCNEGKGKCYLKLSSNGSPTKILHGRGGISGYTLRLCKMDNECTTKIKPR
Coagulation factor XI, sequence (P03951 388-625 limits assumed): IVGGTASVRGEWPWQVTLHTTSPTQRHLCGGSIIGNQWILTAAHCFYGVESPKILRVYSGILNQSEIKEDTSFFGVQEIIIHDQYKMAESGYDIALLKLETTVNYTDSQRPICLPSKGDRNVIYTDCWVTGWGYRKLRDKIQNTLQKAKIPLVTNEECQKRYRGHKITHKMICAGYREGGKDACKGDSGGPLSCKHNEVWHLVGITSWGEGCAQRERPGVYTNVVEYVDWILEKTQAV

IC50 (Coagulation factor XI): 18.5 nM
SMILES: O=C(NC1CC=CC1)N1CCC(c2cccc([C@H](Cc3ccccc3)c3ccc(-c4cc(Cl)ccc4-n4cnnn4)c[n+]3[O-])c2)CC1
IC50 (Plasma kallikrein): 696 nM
